Measurements from article PMC8881077 (Journal of Enzyme Inhibition and Medicinal Chemistry, 2022).
Where two headings read alike, the source gives them in different places.

How the values were obtained:
[1] = target: T1, ratBuChE (Rattus norvegicus, UniProt Q9JKC1); assay: ratBuChE inhibition, modified Ellman's method; type: biochemical
T1 construct: BuChE from rat serum or human serum (Sigma Co.); from tissue; host or cells: rat serum
Protocol: (§1) The AChE and BuChE inhibitory activities of the synthesised compounds were evaluated using the Ellman assay with slight modification. AChE from 5% rat cortex homogenate or human erythrocytes (Sigma Co.). BuChE from rat serum or human serum (Sigma Co.).

[2] = target: T2, huBuChE (Homo sapiens, UniProt P06276); assay: biochemical; type: biochemical; conditions: from human serum; read-out: IC50 ± SD huBuChE
T2 construct: BuChE from rat serum or human serum (Sigma Co.); purchased Sigma Co; host or cells: human serum
Protocol: as §1

[3] = target: Aβ1–42 (Homo sapiens, UniProt P05067); assay: Cu^2+-induced Aβ1–42 aggregation, ThT fluorescence; type: biochemical; conditions: tested compounds and Aβ1–42 25 μM
Protocol: Curcumin was also tested as a referenced compound.
The Thioflavin T-based flurometric assay was employed to test the inhibition potency on self-induced/Cu^2+-induced Aβ1-42 aggregation.

[4] = target: huAChE-induced Aβ1–40 aggregation (Homo sapiens, UniProt P22303); assay: huAChE-induced Aβ1–40 aggregation, ThT assay; type: biochemical; conditions: inhibitor 100 μM, Aβ1–40 230 μM, Aβ1–40/AChE ratio 100/1
[5] = tested on: NO production in LPS-induced BV-2 cells; assay: NO production in BV-2 cells, Griess reaction; type: cell-based; conditions: for release volume of NO in BV-2 cells without LPS: 3 μM and 9 μM
Protocol: Compounds 5f and 7k were selected to test the anti-inflammatory potency by measuring the production of inflammatory mediators TNF-α and NO in LPS-induced BV-2 cells[32]^,[33]. • Cytotoxicity of compounds 5f and 7k on BV-2 cells. Firstly, the cytotoxicity of compounds 5f and 7k were tested using an MTT assay. […] In inhibition of LPS-induced, NO production was tested through the Griess reaction method. […] In addition, to further investigate the effects of compounds 5f and 7k on LPS-induced TNF-α production in BV-2 cells, the enzyme-linked immunosorbent assay (ELISA) was used.
Griess reagent system was used to evaluate the inhibition of LPS-induced NO production. The methods of culturing BV-2 cells, setting blank control and adding tested compounds 5f or 7k (1 μM, 3 μM and 9 μM) and LPS were the same as those in the cytotoxicity assay. After that, the cell culture supernatants and different concentrations of NaNO2 as a standard were added to a 96-well plate since the NaNO2 concentration in the supernatant could act as an indicator of NO production. Then, to each well was added the same volume of Griess reagent and incubated at room temperature for 10 min. Finally, the absorbance was monitored at 540 nm using an ELISA plate reader to measure the results of NO production.

[6] = for ORAC: Trolox as standard
Protocol: The skeleton compounds naringenin and apigenin were also evaluated for comparison purposes, and vitamin E analogue Trolox was used as a standard.
The antioxidant potency of target compounds was tested using an oxygen radical absorbance capacity fluorescein (ORAC-FL) assay.

[7] = target: T3, huAChE (Homo sapiens, UniProt P22303); type: biochemical; design: AChE from human erythrocytes (Sigma Co.); purchased Sigma Co; host or cells: human erythrocytes; conditions: for huAChE activity restored: 0.1 × IC50, at 60 min, Figure 2B; for huAChE activity increase when diluted to 0.1 × IC50: Figure 2A, dilution to 0.1 × IC50
Protocol: In order to further explore the reversibility of inhibition, the recovery of huAChE inhibitors inhibition after dilution was carried out with time monitoring.
Data were expressed as the mean ± SEM by three independent experiments.

[8] = target: T3, huAChE; assay: Enzyme kinetic study of huAChE (Lineweaver-Burk); type: biochemical; design: AChE from human erythrocytes (Sigma Co.); purchased Sigma Co; host or cells: human erythrocytes; conditions: for type of AChE inhibition: Lineweaver-Burk plot; for Ki: replots of slope versus concentration, read-out: inhibition constant Ki
From the text: An enzyme kinetic study was applied to determine the mechanism of AChE inhibition for compounds 5f and 7k. The lineweaver-Burk double reciprocal plot was used to define the inhibition by plotting the initial velocities of the substrate at the y-axis and increasing concentrations of the substrate at the x-axis[17]^,[19]. […] […].
Figure 3. Enzyme kinetic study on the mechanism of huAChE inhibition by compounds 5f and 7k. […] (D) Representing the plots of slope versus the concentration of 7k for determining the inhibition constants Ki. […] |

[9] = tested on: SPF Kunming mice; assay: Acute toxicity; type: in vivo
Protocol: Kunming mice at a body weight of 18–22 g (six weeks old, either gender) were supplied by the Centre of Experimental Animals of Sichuan Academy of Chinese Medicine Sciences (eligibility certification no. SCXK-Chuan2018-19). Mice were maintained under standard conditions with a 12 h:12 h light-dark cycle at 20−22 °C with a relative humidity of 60 − 70%. Sterile food and water were provided according to institutional guidelines. Prior to each experiment, mice were fasted overnight and allowed free access to water. […] After the administration of the compound 5f, the mice were observed continuously for the first 4 h for any abnormal behaviour and mortality changes, intermittently for the next 24 h, and occasionally thereafter for 14 days for the onset of any delayed effects. All animals were sacrificed on the 14th day after drug administration and were macroscopically examined for possible damage to the heart, liver, and kidneys.

[10] = in vitro; conditions: PAMPA
[11] = tested on: scopolamine-induced mice memory impairment; assay: Step-down passive avoidance task; conditions: scopolamine 3 mg/kg
Protocol: Sixty mice were randomly divided into six groups. […] After 30 min, memory impairment was induced by administering scopolamine (3 mg/kg).

T3 sequence (P22303 32-617 isoform P22303-2 limits assumed): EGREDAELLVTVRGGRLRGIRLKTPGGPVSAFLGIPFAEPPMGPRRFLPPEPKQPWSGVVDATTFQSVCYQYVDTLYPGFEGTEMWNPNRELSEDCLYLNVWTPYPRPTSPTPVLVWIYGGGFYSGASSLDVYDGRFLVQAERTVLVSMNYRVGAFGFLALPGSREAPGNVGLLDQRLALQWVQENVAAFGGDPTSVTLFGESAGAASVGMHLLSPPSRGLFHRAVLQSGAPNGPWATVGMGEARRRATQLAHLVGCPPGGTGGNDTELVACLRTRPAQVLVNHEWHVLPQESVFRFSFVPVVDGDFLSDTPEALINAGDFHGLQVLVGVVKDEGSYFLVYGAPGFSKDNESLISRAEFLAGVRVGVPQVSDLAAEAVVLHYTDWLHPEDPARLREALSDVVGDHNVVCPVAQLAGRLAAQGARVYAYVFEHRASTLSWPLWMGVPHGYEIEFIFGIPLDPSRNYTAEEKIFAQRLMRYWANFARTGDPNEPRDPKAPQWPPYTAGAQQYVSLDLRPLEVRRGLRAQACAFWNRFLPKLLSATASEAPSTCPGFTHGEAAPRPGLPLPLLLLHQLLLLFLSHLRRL
T2 sequence (P06276 29-602): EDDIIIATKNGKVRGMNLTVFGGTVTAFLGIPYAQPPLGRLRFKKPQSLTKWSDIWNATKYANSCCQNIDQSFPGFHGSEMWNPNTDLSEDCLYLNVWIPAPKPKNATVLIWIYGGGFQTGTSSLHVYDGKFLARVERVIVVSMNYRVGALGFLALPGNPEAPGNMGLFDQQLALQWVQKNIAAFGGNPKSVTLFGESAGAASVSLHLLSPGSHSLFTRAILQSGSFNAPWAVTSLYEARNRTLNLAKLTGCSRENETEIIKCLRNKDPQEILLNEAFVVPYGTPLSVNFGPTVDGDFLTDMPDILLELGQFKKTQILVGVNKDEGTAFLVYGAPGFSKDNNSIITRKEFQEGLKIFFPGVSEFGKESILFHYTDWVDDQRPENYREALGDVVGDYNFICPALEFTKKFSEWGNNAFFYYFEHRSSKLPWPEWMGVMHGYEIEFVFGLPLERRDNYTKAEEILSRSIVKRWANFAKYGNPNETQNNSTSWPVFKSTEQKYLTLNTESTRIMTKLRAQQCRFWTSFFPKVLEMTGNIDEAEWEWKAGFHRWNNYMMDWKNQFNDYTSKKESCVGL
T1 sequence (Q9JKC1 24-597): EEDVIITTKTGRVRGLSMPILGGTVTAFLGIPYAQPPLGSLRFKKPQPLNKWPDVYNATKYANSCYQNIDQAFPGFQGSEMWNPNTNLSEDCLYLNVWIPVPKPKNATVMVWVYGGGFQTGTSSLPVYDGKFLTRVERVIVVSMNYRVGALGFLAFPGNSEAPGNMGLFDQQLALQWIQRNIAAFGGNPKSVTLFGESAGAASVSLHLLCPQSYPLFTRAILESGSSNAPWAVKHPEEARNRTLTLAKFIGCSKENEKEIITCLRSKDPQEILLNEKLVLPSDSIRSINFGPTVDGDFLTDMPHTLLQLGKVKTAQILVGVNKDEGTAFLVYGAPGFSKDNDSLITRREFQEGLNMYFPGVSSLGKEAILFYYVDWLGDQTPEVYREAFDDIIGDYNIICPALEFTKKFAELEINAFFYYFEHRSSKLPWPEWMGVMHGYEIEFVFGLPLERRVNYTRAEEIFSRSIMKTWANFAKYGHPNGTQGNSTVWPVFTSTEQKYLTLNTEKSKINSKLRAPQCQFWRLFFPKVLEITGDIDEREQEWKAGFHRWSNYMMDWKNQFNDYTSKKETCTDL
Sequence of huAChE-induced Aβ1–40 aggregation (P22303 32-588 isoform P22303-2): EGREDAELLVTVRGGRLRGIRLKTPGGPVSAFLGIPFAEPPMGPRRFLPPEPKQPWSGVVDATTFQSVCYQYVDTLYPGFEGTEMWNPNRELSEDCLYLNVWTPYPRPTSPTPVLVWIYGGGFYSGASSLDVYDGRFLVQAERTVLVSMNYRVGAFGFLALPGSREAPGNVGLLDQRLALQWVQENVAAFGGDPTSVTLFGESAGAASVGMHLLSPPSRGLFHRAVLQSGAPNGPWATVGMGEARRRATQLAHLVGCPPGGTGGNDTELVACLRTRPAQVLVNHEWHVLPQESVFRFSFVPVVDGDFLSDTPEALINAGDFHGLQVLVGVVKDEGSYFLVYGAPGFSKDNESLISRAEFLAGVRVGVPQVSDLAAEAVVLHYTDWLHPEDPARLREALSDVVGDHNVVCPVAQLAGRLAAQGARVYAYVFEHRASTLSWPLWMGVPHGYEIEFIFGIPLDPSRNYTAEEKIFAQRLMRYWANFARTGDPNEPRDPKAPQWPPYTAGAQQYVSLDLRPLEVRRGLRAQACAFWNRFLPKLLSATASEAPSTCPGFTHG
Sequence of Aβ1–42 (P05067 672-713): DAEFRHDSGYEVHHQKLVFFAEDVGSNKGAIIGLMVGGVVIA

7-((6-(benzyl(ethyl)amino)hexyl)oxy)-2–(4-((6-(benzyl(ethyl)amino)hexyl)oxy)phenyl)-5-hydroxychroman-4-one [Compound 7k]
IC50 ([1]; BuChE from rat serum, read-out: IC50 ± SD ratBChE): 14.8 ± 0.36 µM | IC50 [2]: 8.2 ± 0.37 µM | Inhibition of Aβ1–42 aggregation, Cu^2+-induced (%) [3]: 68.7 ± 0.46% | Inhibition of huAChE-induced Aβ1–40 aggregation (%) [4]: 43.4 ± 0.43% | inhibition rate of LPS-induced NO production ([5]; 1 μM, 1 μg/mL LPS): 26.7% | release volume of NO in BV-2 cells without LPS ([5]; 1 μM): did not produce significant change | inhibition rate of LPS-induced NO production ([5]; 3 μM, 1 μg/mL LPS): 36.2% | inhibition rate of LPS-induced NO production ([5]; 9 μM, 1 μg/mL LPS): 48.5% | ORAC [6]: 1.2 ± 0.02 μM of Trolox equivalent/μM of tested compound | reversibility of huAChE inhibition [7]: reversible | huAChE activity (% control) ([7]; 0.1*IC50, diluted): 61.2 % control | huAChE activity restored [7]: 96.8% | huAChE activity (% control) ([7]; 1*IC50, diluted): 53.4 % control | huAChE activity (% control) ([7]; 1*IC50, undiluted): 52.6 % control | huAChE activity increase when diluted to 0.1 × IC50 [7]: 7.8% | type of AChE inhibition [8]: mixed-type | Ki [8]: 0.39 µM

CCN(CCCCCOc1cc(O)c2c(c1)OC(c1ccc(O)cc1)CC2=O)Cc1ccccc1 (stereo not drawn) [Compound 5f, 7-((5-(benzyl(ethyl)amino)pentyl)oxy)-5-hydroxy-2–(4-hydroxyphenyl)chroman-4-one]
IC50 [1]: 16.9 ± 0.27 µM | IC50 [2]: 6.3 ± 0.74 µM | inhibition at 25 µM [3]: 73.5 ± 0.25% | Inhibition of huAChE-induced Aβ1–40 aggregation (%) [4]: 51.7 ± 0.75% | release volume of NO in BV-2 cells without LPS ([5]; 1 μM): did not produce significant change | inhibition at 1 µM ([5]; Mus musculus, BV-2, 1 μM, 1 μg/mL LPS, read-out: inhibition rate of LPS-induced NO production): 37.6% | inhibition at 3 µM ([5]; Mus musculus, BV-2, 3 μM, 1 μg/mL LPS, read-out: inhibition rate of LPS-induced NO production): 52.1% | inhibition at 9 µM ([5]; Mus musculus, BV-2, 9 μM, 1 μg/mL LPS, read-out: inhibition rate of LPS-induced NO production): 63.8% | acute toxicity, recovery ([9]; after 24h): returned to normal | acute toxicity, heart, liver, spleen, lung and kidney ([9]; after 7 days): no abnormalities were observed | acute toxicity, observed signs ([9]; dose of 500 mg/kg, intragastric): decreased spontaneous activity and movement, drowsiness, dyspnoea and reduced breathing rate | Papp at 100 μg/mL [10]: 6.9 ± 0.36 ×10⁻⁶ cm/s | step-down latency ([11]; 1.9 mg/kg): 153.7 s | step-down latency ([11]; 5.7 mg/kg): 183.4 s | step-down latency ([11]; 17.1 mg/kg): 207.8 s | ORAC values [6]: 2.3 eq | ORAC [6]: 2.3 ± 0.03 μM of Trolox equivalent/μM of tested compound | reversibility of huAChE inhibition [7]: reversible | huAChE activity (% control) ([7]; 0.1*IC50, diluted): 55.6 % control | huAChE activity restored [7]: 89.8% | huAChE activity (% control) ([7]; 1*IC50, diluted): 48.7 % control | huAChE activity (% control) ([7]; 1*IC50, undiluted): 47.9 % control | huAChE activity increase when diluted to 0.1 × IC50 [7]: 6.9% | type of AChE inhibition [8]: mixed-type | Ki [8]: 0.74 µM
